# Literature values in patent US20090318295A1, “Solid herbicidal formulation of N-(phosphono-methyl)glycine and process for its preparation” (priority 2002, published 2009).
compound,measurement,value
"O=C(O)CNCP(=O)(O)O [Glyphosate, N-(phosphonomethyl)glycine]",solubility in water,12 mg/mL
